Laboratory results published in BindingDB's records for doi:10.1021/acs.jmedchem.9b01567 (Peking Union Medical College, 2020).

Molecular target: T1, Interferon regulatory factor 3 (Homo sapiens, UniProt Q14653)
T1 sequence (Q14653 whole entry): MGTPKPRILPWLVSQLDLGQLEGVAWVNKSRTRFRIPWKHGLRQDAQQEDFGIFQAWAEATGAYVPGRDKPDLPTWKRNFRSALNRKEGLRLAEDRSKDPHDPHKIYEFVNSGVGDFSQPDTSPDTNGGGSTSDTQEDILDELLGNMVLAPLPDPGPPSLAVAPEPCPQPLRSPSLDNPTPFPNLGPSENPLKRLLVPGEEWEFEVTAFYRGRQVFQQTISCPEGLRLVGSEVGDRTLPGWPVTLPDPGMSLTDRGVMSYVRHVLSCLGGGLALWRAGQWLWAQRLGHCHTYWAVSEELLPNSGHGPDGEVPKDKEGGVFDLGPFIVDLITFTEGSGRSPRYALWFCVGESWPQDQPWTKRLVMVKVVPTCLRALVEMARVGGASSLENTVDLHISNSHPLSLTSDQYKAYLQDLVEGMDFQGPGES
Assay: Induction of IRF3 pathway in STING knockout human THP1 cells measured after 20 hrs by luciferase reporter gene assay

| SMILES | EC50 [µM] |
| --- | --- |
| CCn1nc(C)cc1C(=O)Nc1nc2cc(C(N)=O)cc(OCCCN3CCOCC3)c2n1CCCNC(=O)OCc1ccccc1 | > 100 |
| CCn1nc(C)cc1C(=O)Nc1nc2cc(C(N)=O)cc(OC)c2n1CCCNC(=O)CCC(=O)OC | > 100 |
| CCCn1c(NC(=O)c2cc(C)nn2CC)nc2cccc(OC)c21 | > 100 |
| CCCn1c(NC(=O)CCc2ccccc2)nc2cc(C(N)=O)cc(OC)c21 | > 100 |
| CCCn1c(NC(=O)c2cccnn2)nc2cc(C(N)=O)cc(OC)c21 | > 100 |
| CCCn1c(NC(=O)c2cc(C)nn2CC)nc2cc(C(=O)OC)cc(OC)c21 | > 100 |
| COc1cc(C(N)=O)cc2nc(NC(=O)c3cncn3C)n(CCCNC(=O)OCc3ccccc3)c12 | > 100 |
| CCCn1c(NC(=O)c2cncn2C)nc2cc(C(N)=O)cc(OC)c21 | > 100 |
| CCn1nc(C)cc1C(=O)Nc1nc2cc(C(=O)OC)cnc2n1CCCNC(=O)OC(C)(C)C | > 100 |
| COc1cc(C(N)=O)cc2nc(NC(=O)c3cccnn3)n(CCCNC(=O)OCc3ccccc3)c12 | > 100 |
| CCn1nc(C)cc1C(=O)Nc1nc2cc(C(N)=O)ccc2n1CCCNC(=O)OCc1ccccc1 | > 100 |
| CCCn1c(NC(=O)c2ccc3ccccc3n2)nc2cc(C(N)=O)cc(OC)c21 | > 100 |
| COc1cc(C(N)=O)cc2nc(NC(=O)C3CCCN3C)n(CCCNC(=O)OCc3ccccc3)c12 (centres undefined) | > 100 |
| CCn1nc(C)cc1C(=O)Nc1nc2cc(C(=O)O)cnc2n1CCCNC(=O)OC(C)(C)C | > 100 |
| CCn1nc(C)cc1C(=O)Nc1nc2cc(C(N)=O)cc(OC)c2n1CCCNC(=O)CCC(=O)O | > 100 |
| COCCCOc1cc(C(N)=O)cc2nc(NC(=O)c3ccccn3)n(CCCNC(=O)OCc3ccccc3)c12 | > 100 |
| CCn1nc(C)cc1C(=O)Nc1nc2cc(C(N)=O)cc(OC)c2n1CCCN | > 100 |
| COCCCOc1cc(C(N)=O)cc2nc(NC(=O)c3cccnn3)n(CCCNC(=O)OCc3ccccc3)c12 | > 100 |
| COc1cc(C(N)=O)cc2nc(NC(=O)C3CCN(C)CC3)n(CCCNC(=O)OCc3ccccc3)c12 | > 100 |

Next, values leading:

| EC50 [µM] | SMILES |
| --- | --- |
| > 100 | COc1cc(C(N)=O)cc2nc(NC(=O)c3ccccn3)n(CCCCNC(=O)OC(C)(C)C)c12 |
| > 100 | CCCn1c(NC(=O)c2ccccn2)nc2cc(C(N)=O)cc(OC)c21 |
| > 100 | COc1cc(C(N)=O)cc2nc(NC(=O)c3cc4ccccc4n3C)n(CCCNC(=O)OCc3ccccc3)c12 |
| > 100 | CCn1nc(C)cc1C(=O)Nc1nc2cc(C(N)=O)cc(OC)c2n1CCCNC(=O)c1ccccc1 |
| > 100 | COc1cc(C(N)=O)cc2nc(NC(=O)c3nccc4ccccc34)n(CCCNC(=O)OCc3ccccc3)c12 |
| > 100 | COc1cc(C(N)=O)cc2nc(NC(=O)CCc3ccccc3)n(CCCNC(=O)OCc3ccccc3)c12 |
| 27.6 | CCn1nc(C)cc1C(=O)Nc1nc2cc(C(=O)OC)cc(OC)c2n1CCCNC(=O)OCc1ccccc1 |
| > 100 | CCn1nc(C)cc1C(=O)Nc1nc2cccc(OC)c2n1CCCNC(=O)OCc1ccccc1 |
| > 100 | COc1cc(C(N)=O)cc2nc(NC(=O)c3cccn3C)n(CCCNC(=O)OCc3ccccc3)c12 |
| > 100 | COc1cc(C(N)=O)cc2nc(NC(=O)c3ccc4ccccc4n3)n(CCCNC(=O)OCc3ccccc3)c12 |
| > 100 | CCCn1c(NC(=O)c2ccnn2C)nc2cc(C(N)=O)cc(OC)c21 |
| > 100 | CCn1nccc1C(=O)Nc1nc2cc(C(N)=O)cc(OC)c2n1CCCNC(=O)OCc1ccccc1 |
| > 100 | CCn1nc(C)cc1C(=O)Nc1nc2cc(C(N)=O)cc(OC)c2n1CCCNC(=O)CCc1cccnc1 |
| > 100 | NC(=O)c1cc(OCCCN2CCOCC2)c2c(c1)nc(NC(=O)c1ccccn1)n2CCCNC(=O)OCc1ccccc1 |
| > 100 | COc1cc(C(N)=O)cc2nc(NC(=O)c3ccnn3C)n(CCCNC(=O)OCc3ccccc3)c12 |
| > 100 | COc1cc(C(N)=O)cc2nc(NC(=O)c3cccnn3)n(CCCCNC(=O)OC(C)(C)C)c12 |
| > 100 | CCn1nc(C)cc1C(=O)Nc1nc2cc(C(N)=O)cc(OC)c2n1CCCNC(=O)OC(C)(C)C |
| > 100 | CCCn1c(NC(=O)c2cc3ccccc3n2C)nc2cc(C(N)=O)cc(OC)c21 |
| > 100 | CCCn1c(NC(=O)c2cc(C)nn2CC)nc2cc(C(N)=O)ccc21 |
| > 100 | CCn1nc(C)cc1C(=O)Nc1nc2cc(C(N)=O)cnc2n1CCCNC(=O)OC(C)(C)C |
| > 100 | COc1cc(C(N)=O)cc2nc(NC(=O)c3ccccn3)n(CCCNC(=O)OCc3ccccc3)c12 |
| > 100 | CCCn1c(NC(=O)c2ccnn2CC)nc2cc(C(N)=O)cc(OC)c21 |
| > 100 | CCCn1c(NC(=O)c2nccc3ccccc23)nc2cc(C(N)=O)cc(OC)c21 |
| > 100 | NC(=O)c1cc(OCCCN2CCOCC2)c2c(c1)nc(NC(=O)c1cccnn1)n2CCCNC(=O)OCc1ccccc1 |
| > 100 | CCn1nc(C)cc1C(=O)Nc1nc2cc(C(N)=O)cc(OC)c2n1CCCNC(=O)CCc1cc(OC)c(OC)c(OC)c1 |
| > 100 | CCn1nc(C)cc1C(=O)Nc1nc2cc(C(N)=O)cc(OC)c2n1CCCNC(=O)C(C)(C)C |
| > 100 | CCn1nc(C)cc1C(=O)Nc1nc2cc(C(N)=O)cc(OC)c2n1CCCNC(=O)OCc1ccccc1 |

Molecular target: not listed separately
Assay: Agonist activity at STING in human THP1 cells assessed as stimulation of IRF3 pathway measured after 20 hrs by luciferase reporter gene assay

| SMILES | EC50 [µM] |
| --- | --- |
| CCn1nc(C)cc1C(=O)Nc1nc2cc(C(N)=O)cc(OC)c2n1CCCNC(=O)CCC(=O)OC | > 100 |
| CCCn1c(NC(=O)c2cc(C)nn2CC)nc2cccc(OC)c21 | > 100 |
| CCCn1c(NC(=O)CCc2ccccc2)nc2cc(C(N)=O)cc(OC)c21 | > 100 |
| CCCn1c(NC(=O)c2cccnn2)nc2cc(C(N)=O)cc(OC)c21 | > 100 |
| CCCn1c(NC(=O)c2cc(C)nn2CC)nc2cc(C(=O)OC)cc(OC)c21 | > 100 |
| COc1cc(C(N)=O)cc2nc(NC(=O)c3cncn3C)n(CCCNC(=O)OCc3ccccc3)c12 | > 100 |
| CCCn1c(NC(=O)c2cncn2C)nc2cc(C(N)=O)cc(OC)c21 | > 100 |
| CCn1nc(C)cc1C(=O)Nc1nc2cc(C(=O)OC)cnc2n1CCCNC(=O)OC(C)(C)C | > 100 |
| CCn1nc(C)cc1C(=O)Nc1nc2cc(C(N)=O)ccc2n1CCCNC(=O)OCc1ccccc1 | > 100 |
| CCCn1c(NC(=O)c2ccc3ccccc3n2)nc2cc(C(N)=O)cc(OC)c21 | > 100 |
| COc1cc(C(N)=O)cc2nc(NC(=O)C3CCCN3C)n(CCCNC(=O)OCc3ccccc3)c12 (centres undefined) | > 100 |
| CCn1nc(C)cc1C(=O)Nc1nc2cc(C(=O)O)cnc2n1CCCNC(=O)OC(C)(C)C | > 100 |
| CCn1nc(C)cc1C(=O)Nc1nc2cc(C(N)=O)cc(OC)c2n1CCCNC(=O)CCC(=O)O | > 100 |
| CCn1nc(C)cc1C(=O)Nc1nc2cc(C(N)=O)cc(OC)c2n1CCCN | > 100 |
| COCCCOc1cc(C(N)=O)cc2nc(NC(=O)c3cccnn3)n(CCCNC(=O)OCc3ccccc3)c12 | > 100 |
| COc1cc(C(N)=O)cc2nc(NC(=O)C3CCN(C)CC3)n(CCCNC(=O)OCc3ccccc3)c12 | > 100 |

The next lines start with the values.

| EC50 [µM] | SMILES |
| --- | --- |
| > 100 | CCCn1c(NC(=O)c2ccccn2)nc2cc(C(N)=O)cc(OC)c21 |
| > 100 | COc1cc(C(N)=O)cc2nc(NC(=O)c3cc4ccccc4n3C)n(CCCNC(=O)OCc3ccccc3)c12 |
| > 100 | CCn1nc(C)cc1C(=O)Nc1nc2cc(C(N)=O)cc(OC)c2n1CCCNC(=O)c1ccccc1 |
| > 100 | COc1cc(C(N)=O)cc2nc(NC(=O)c3nccc4ccccc34)n(CCCNC(=O)OCc3ccccc3)c12 |
| > 100 | COc1cc(C(N)=O)cc2nc(NC(=O)CCc3ccccc3)n(CCCNC(=O)OCc3ccccc3)c12 |
| 20.7 | CCn1nc(C)cc1C(=O)Nc1nc2cc(C(=O)OC)cc(OC)c2n1CCCNC(=O)OCc1ccccc1 |
| > 100 | CCn1nc(C)cc1C(=O)Nc1nc2cccc(OC)c2n1CCCNC(=O)OCc1ccccc1 |
| > 100 | COc1cc(C(N)=O)cc2nc(NC(=O)c3cccn3C)n(CCCNC(=O)OCc3ccccc3)c12 |
| > 100 | COc1cc(C(N)=O)cc2nc(NC(=O)c3ccc4ccccc4n3)n(CCCNC(=O)OCc3ccccc3)c12 |
| > 100 | CCCn1c(NC(=O)c2ccnn2C)nc2cc(C(N)=O)cc(OC)c21 |
| > 100 | CCn1nccc1C(=O)Nc1nc2cc(C(N)=O)cc(OC)c2n1CCCNC(=O)OCc1ccccc1 |
| 39.5 | CCn1nc(C)cc1C(=O)Nc1nc2cc(C(N)=O)cc(OC)c2n1CCCNC(=O)CCc1cccnc1 |
| > 100 | NC(=O)c1cc(OCCCN2CCOCC2)c2c(c1)nc(NC(=O)c1ccccn1)n2CCCNC(=O)OCc1ccccc1 |
| > 100 | COc1cc(C(N)=O)cc2nc(NC(=O)c3ccnn3C)n(CCCNC(=O)OCc3ccccc3)c12 |
| > 100 | CCCn1c(NC(=O)c2cc3ccccc3n2C)nc2cc(C(N)=O)cc(OC)c21 |
| > 100 | CCn1nc(C)cc1C(=O)Nc1nc2cc(C(N)=O)cnc2n1CCCNC(=O)OC(C)(C)C |
| > 100 | CCCn1c(NC(=O)c2ccnn2CC)nc2cc(C(N)=O)cc(OC)c21 |
| > 100 | CCCn1c(NC(=O)c2nccc3ccccc23)nc2cc(C(N)=O)cc(OC)c21 |
| > 100 | NC(=O)c1cc(OCCCN2CCOCC2)c2c(c1)nc(NC(=O)c1cccnn1)n2CCCNC(=O)OCc1ccccc1 |
| > 100 | CCn1nc(C)cc1C(=O)Nc1nc2cc(C(N)=O)cc(OC)c2n1CCCNC(=O)CCc1cc(OC)c(OC)c(OC)c1 |
| 27.5 | CCn1nc(C)cc1C(=O)Nc1nc2cc(C(N)=O)cc(OC)c2n1CCCNC(=O)C(C)(C)C |
| 0.872 | CCn1nc(C)cc1C(=O)Nc1nc2cc(C(N)=O)cc(OC)c2n1CCCNC(=O)OCc1ccccc1 |
